Laboratory results published in patent publication US20260191853A1, “METHOD OF TREATING DRUG-INDUCED BRADYARRHYTHMIA” (OSAKA UNIVERSITY, priority 2022, published 2026).

Columns and labels:
Hartley guinea pigs = assay: Termination effect on siponimod-induced bradyarrhythmia in isoflurane-anesthetized guinea pig model; type: in vivo
From the text: Hartley guinea pigs (7 to 10 weeks old, male, available from Japan SLC, Inc.) were subjected to anesthetic induction by inhalation of isoflurane (available from Pfizer Japan Inc.), and each animal was held on an operating table having a heater function. The trachea was incised, and a tracheal cannula (KN-375, available from Natsume Seisakusho Co., Ltd.) was inserted. The tracheal cannula was connected to a ventilator (SN-480-7, available from Shinano Seisakusho Co., Ltd.), and artificial respiration was controlled by supplying 100% oxygen at a volume of 10 mL and a ventilation rate of 60 times/minute. Isoflurane (available from Pfizer Japan Inc.) anesthesia (about 1 to 4%, carrier gas: 100% oxygen) was used for maintenance of anesthesia. A catheter (BD intramedic polyethylene tubing PE50, available from Becton, Dickinson and Company) charged with 50 units/mL heparin (available from AY PHARMACEUTICALS CO., LTD.) was inserted into each of the carotid artery and the jugular vein and placed in the blood vessel. Systemic blood pressure was measured with a high-sensitivity DC amplifier (AD-611J, available from NIHON KOHDEN CORPORATION) via the catheter placed in the carotid artery. Electrodes were attached to the body surface, and a body surface electrocardiogram was measured with a high-sensitivity amplifier (AB-611J, available from NIHON KOHDEN CORPORATION). Blood pressure and electrocardiogram data were acquired and analyzed with PowerLab/Labchart system (available from ADInstruments). After stabilization of each parameter, siponimod (available from Nissan Chemical Corporation) was continuously administered intravenously at 0.01 mg/kg for 10 minutes via the catheter placed in the jugular vein, followed by observation of the presence or absence of atrioventricular block. The solvent used was a solution prepared by mixing of Polyethylene Glycol 400 (available from KANTO CHEMICAL CO., INC.) and dimethyl sulfoxide (available from FUJIFILM Wako Pure Chemical Corporation) at 9: 1 (volume ratio). […] Data were recorded and blood was collected 10, 20, and 30 minutes after initiation of administration of compound (I) dihydrochloride and at the time of termination of atrioventricular block. […] Data were analyzed for the presence or absence of the termination, the time required for the termination, and the plasma concentration of compound (I) at the time of termination. […] After thawing of the plasma, plasma drug concentrations were measured using LC/MS/MS after deproteinization with acetonitrile. […]

Wistar rats = assay: Therapeutic effect on propranolol-induced bradyarrhythmia in conscious rat (telemetry); type: in vivo; details: compound (I) dihydrochloride 1 mg/kg i.p. about 30 min after propranolol 1 mg/kg i.p.; awake rats; FIG. 8
From the text: Wistar rats (10 weeks old, male, available from Kiwa Laboratory Animals Co., Ltd.) were anesthetized by inhalation of Sevofrane (available from Maruishi Pharmaceutical Co., Ltd.) and held on an operating table. An implantable telemetry transmitter ETA-F10 (DSI) was placed subcutaneously in each rat, and one lead was fixed to each of the upper right chest and the left lower chest. After being fully awakened, the rat was placed in a cage on the receiving board, and a body surface electrocardiogram was measured with a high-sensitivity amplifier. Electrocardiogram data were acquired and analyzed with LabChart Pro & LabChart module (available from Bio Research Center Co., Ltd.). After stabilization of the heart rate, propranolol (Inderal Injection, available from AstraZeneca K.K.) was administered by intraperitoneal injection at a dose of 1 mg/kg. After the elapse of about 30 minutes, the stabilization of the heart rate was determined, and then saline or compound (I) dihydrochloride was administered by intraperitoneal injection at a dose of 1 mg/kg. Thirty minutes after the administration, the heart rate in a stable state was measured for evaluation. The solvent used was saline (available from Otsuka Pharmaceutical Factory, Inc.). […]

Q: What does the source list for `Cc1cc(CO)nc2cc3c(cc12)OC(C)(C)[C@H](O)[C@H]3NCCc1ccccc1` [Compound (I), (3R,4S)-7-Hydroxymethyl-2,2,9-trimethyl-4-(phenethylamino)-3,4-dihydro-2H-pyrano[2,3-g]quinoline-3-ol]?
A: siponimod-induced bradyarrhythmia (atrioventricular block) termination (Hartley guinea pigs; compound (I) dihydrochloride 0.1 mg/kg continuous i.v.): completely terminated; Compound (I) concentration at the time of termination (Hartley guinea pigs; plasma, siponimod-induced block, 0.1 mg/kg continuous i.v. for 30 minutes, mean±standard error): 22.7 ± 3.1 ng/mL; Number of cases where atrioventricular block was terminated (Hartley guinea pigs; siponimod-induced block, compound (I) dihydrochloride 0.1 mg/kg continuous i.v. for 30 minutes): 5/5; Time required for the termination of atrioventricular block (Hartley guinea pigs; siponimod-induced block, compound (I) dihydrochloride 0.1 mg/kg continuous i.v. for 30 minutes, mean±standard error): 638 ± 75 s; propranolol-induced bradycardia (heart rate) (Wistar rats): improved bradycardia
